Here are results for two compounds from patent US9775904B2 (priority 2014, dated 2017).

Series [1] in a line: Acute effect on blood glucose in fed female DIO C57BL/6 mice. Type of series: in vivo. To be noted: 50 μg/kg s.c.; t=1, 2, 3, 4, 6 and 24 h post dosing; p<0.0001. As for the experimental part:
(§1) C57BL/6 Harlan mice are housed in groups in a specific pathogen-free barrier facility on a 12 h light/dark cycle with free access to water and standard or high-fat diet. After prefeeding on high-fat diet, mice are stratified to treatment groups (n=8), so that each group has similar mean body weight. An age-matched group with ad-libitum access to standard chow is included as standard control group. Before the experiment, mice are subcutaneously (s.c.) injected with vehicle solution and weighed for 3 days to acclimate them to the procedures.
1) Acute effect on blood glucose in fed female DIO mice: initial blood samples are taken just before first administration (s.c.) of vehicle (phosphate buffer solution) or the exendin-4 derivatives (dissolved in phosphate buffer), respectively. The volume of administration is 5 mL/kg. The animals have access to water and their corresponding diet during the experiment. Blood glucose levels are measured at t=0 h, t=1 h, t=2 h, t=3 h, t=4 h, t=6 h and t=24 h (method: Accu-Check glucometer). Blood sampling is performed by tail incision without anaesthesia.
(§2) Statistical analyses are performed with Everstat 6.0 by repeated measures two-way ANOVA and Dunnetts post-hoc analyses (glucose profile) and 1-way-ANOVA, followed by Dunnetts post-hoc test (body weight, body fat). Differences versus vehicle-treated DIO control mice are considered statistically significant at the p<0.05 level.
At predefined time points, more blood samples were taken to measure blood glucose and generate the blood glucose profile over 24 h.

A short description of series [2]: Pharmacokinetic testing in Göttinger minipigs, s.c. To be noted: female, minipig, plasma, sc, Mini pigs, 0.1 mg/kg s.c. In kind it is in vivo. As for the experimental part:
Female Göttinger minipigs were dosed 0.1 mg/kg subcutaneously (s.c.). Blood samples were collected after 0.25, 0.5, 1, 2, 4, 8, 24, 32, 48, 56 and 72 hours post application. Plasma samples were analyzed after protein precipitation via liquid chromatography mass spectrometry (LC/MS). PK parameters and half-life were calculated using WinonLin Version 5.2.1 (non-compartment model).

Series [3] in a line: Solubility testing in buffer (HPLC-UV). Type of series: physicochemical. As for the experimental part: Prior to the testing of solubility and stability of a peptide batch, its purity (HPLC-UV) was determined.
. Therefore, solutions from solid samples were prepared in different buffer systems with a concentration of 10 mg/mL compound based on the previously determined % purity. HPLC-UV was performed after 2 h of gentle agitation from the supernatant, which was obtained by 20 min of centrifugation at 4500 rpm.
[…]. This analysis also served as starting point (t0) for the stability testing.

Series [4] addresses T1, human GLP-1 receptor (hGLP-1 R) (Homo sapiens, UniProt P43220).
T1 construct: expressed in transfected cells
Put plainly: cAMP response of HEK-293 cells expressing human GLP-1 receptor (HTRF). In kind it is cell-based. To be noted: Table 6. As for the experimental part:
(§3) cAMP content of cells was determined using a kit from Cisbio Corp. (cat. no. 62AM4PEC) based on HTRF (Homogenous Time Resolved Fluorescence). For preparation, cells were split into T175 culture flasks and grown overnight to near confluency in medium (DMEM/10% FBS). Medium was then removed and cells washed with PBS lacking calcium and magnesium, followed by proteinase treatment with accutase (Sigma-Aldrich cat. no. A6964). Detached cells were washed and resuspended in assay buffer (1×HBSS; 20 mM HEPES, 0.1% BSA, 2 mM IBMX) and cellular density determined. They were then diluted to 400000 cells/ml and 25 μl-aliquots dispensed into the wells of 96-well plates. For measurement, 25 μl of test compound in assay buffer was added to the wells, followed by incubation for 30 minutes at room temperature.

In series [5] the target is T2, human GIP receptor (hGIP-R) (Homo sapiens, UniProt P48546).
T2 construct: expressed in transfected cells
T2 sequence (P48546 22-466): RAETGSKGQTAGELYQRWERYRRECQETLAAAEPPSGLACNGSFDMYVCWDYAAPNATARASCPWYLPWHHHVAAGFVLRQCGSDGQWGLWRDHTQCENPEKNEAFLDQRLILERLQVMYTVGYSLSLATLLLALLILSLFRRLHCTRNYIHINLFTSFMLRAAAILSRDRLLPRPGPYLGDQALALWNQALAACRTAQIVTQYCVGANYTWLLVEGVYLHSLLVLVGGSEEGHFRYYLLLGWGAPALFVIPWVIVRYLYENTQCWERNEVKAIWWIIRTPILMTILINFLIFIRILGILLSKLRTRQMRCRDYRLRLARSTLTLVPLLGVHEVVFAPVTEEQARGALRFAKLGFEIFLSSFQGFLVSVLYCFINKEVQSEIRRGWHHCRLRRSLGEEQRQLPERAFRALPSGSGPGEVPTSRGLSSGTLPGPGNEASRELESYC
Put plainly: cAMP response of HEK-293 cells expressing human GIP receptor (HTRF). Type of series: cell-based. To be noted: Table 6; read-out: EC50 hGIP-R. On the procedure: as §3
(Time-resolved FRET reads energy transfer from a long-lived donor to a nearby acceptor.)

The nature of series [6]: Pharmacokinetic testing in mice, s.c. In kind it is in vivo. To be noted: mouse, plasma, sc, 1 mg/kg s.c. On the procedure:
Mice were dosed 1 mg/kg subcutaneously (s.c.). The mice were sacrified and blood samples were collected after 0.25, 0.5, 1, 2, 4, 8, 16 and 24 hours post application. Plasma samples were analyzed after protein precipitation via liquid chromatography mass spectrometry (LC/MS). PK parameters and half-life were calculated using WinonLin Version 5.2.1 (non-compartment model).

The nature of series [7]: Chronic effect on body weight and body fat in female DIO C57BL/6 mice, 4 weeks. Type of series: in vivo. To be noted: 50 μg/kg bid s.c.; for Day on which significant body weight decrease begins / Daily body weight compared to vehicle DIO control mice: 4 weeks; for Day on which significant body weight decrease begins: continuing through the end of the study; for Daily body weight compared to vehicle DIO control mice: p>0.0001 by the end of the study (so in the source); for Body fat change / Overall weight change: DIO mice, 4-week treatment, mean ± SEM; for Body fat change: NMR. As for the experimental part:
as §1
2) Chronic effect on body weight in female DIO mice: mice are treated once (s.c. in evening hours) or twice daily (s.c. in the morning and in the evening), respectively, at the beginning and the end of the light phase with either vehicle or exendin-4 derivatives for 4 weeks. Body weight is recorded daily. Two days before start of treatment and on day 26, total fat mass is measured by nuclear magnetic resonance (NMR).
as §2
Body weight was recorded daily, and body fat content was determined before the start and after 4 weeks of treatment. […] These changes resulted from a decrease in body fat, as shown by the absolute changes in body fat content (Table 10, FIG. 3).
Body weight was recorded daily, and body fat content was determined before the start and after 4 weeks of treatment.

Series [8] concerns the target T3, human glucagon receptor (hGlucagon R) (Homo sapiens, UniProt P47871).
T3 construct: expressed in transfected cells
Put plainly: cAMP response of HEK-293 cells expressing human glucagon receptor (HTRF). To be noted: Table 6. Type of series: cell-based. As for the experimental part:
as §3

[9] abbreviates: pH 4.5, target concentration 10 mg/ml, read-out: solubility [mg/ml] pH 4.5.
[10] abbreviates: pH 7.4, target concentration 10 mg/ml, read-out: solubility [mg/ml] pH 7.4.

Each structure is given as a SMILES string. Like-named read-outs stand apart in the source and are kept apart here. A value given as a limit tells only on which side of the number the result lay.

Broadly, the Cmax is the highest concentration seen after dosing. The term half-life denotes the time in which the quantity being followed falls by half. Low values mean fast loss, high ones slow loss. For orientation: EC50 means the concentration that produces a half-maximal response.

T1 sequence (P43220 24-463): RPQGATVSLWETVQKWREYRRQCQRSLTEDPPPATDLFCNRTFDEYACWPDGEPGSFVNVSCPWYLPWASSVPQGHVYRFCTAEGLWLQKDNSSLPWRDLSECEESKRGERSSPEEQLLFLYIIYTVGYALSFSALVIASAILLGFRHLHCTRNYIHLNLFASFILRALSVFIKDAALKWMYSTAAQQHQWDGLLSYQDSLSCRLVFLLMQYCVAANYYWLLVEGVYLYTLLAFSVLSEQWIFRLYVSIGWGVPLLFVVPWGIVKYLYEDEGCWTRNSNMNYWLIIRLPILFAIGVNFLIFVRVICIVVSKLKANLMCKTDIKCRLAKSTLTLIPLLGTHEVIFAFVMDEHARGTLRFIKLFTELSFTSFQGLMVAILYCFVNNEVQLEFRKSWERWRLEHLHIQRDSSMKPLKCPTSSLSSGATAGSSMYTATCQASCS
T3 sequence (P47871 26-477): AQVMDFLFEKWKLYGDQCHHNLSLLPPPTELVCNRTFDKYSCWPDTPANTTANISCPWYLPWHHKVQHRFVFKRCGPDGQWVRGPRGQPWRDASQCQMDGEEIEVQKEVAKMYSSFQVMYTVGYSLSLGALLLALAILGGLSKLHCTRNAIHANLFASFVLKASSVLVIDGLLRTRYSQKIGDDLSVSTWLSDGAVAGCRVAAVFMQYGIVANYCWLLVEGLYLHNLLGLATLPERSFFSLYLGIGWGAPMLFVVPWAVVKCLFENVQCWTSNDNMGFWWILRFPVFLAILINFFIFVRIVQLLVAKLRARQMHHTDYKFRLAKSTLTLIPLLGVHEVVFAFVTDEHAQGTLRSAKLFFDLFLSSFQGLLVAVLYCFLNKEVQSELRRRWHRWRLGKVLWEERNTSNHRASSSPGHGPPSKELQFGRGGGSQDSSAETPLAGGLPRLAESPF

As for `CCCCCCCCCCCCCCCC(=O)N[C@@H](CCC(=O)N[C@@H](CCC(=O)NCCCC[C@H](NC(=O)[C@H](CCC(N)=O)NC(=O)[C@H](CCCCN)NC(=O)[C@H](CO)NC(=O)[C@H](CC(C)C)NC(=O)[C@H](CC(=O)O)NC(=O)[C@H](CO)NC(=O)[C@@H](NC(=O)[C@H](Cc1ccccc1)NC(=O)[C@@H](NC(=O)CNC(=O)[C@H](CCC(N)=O)NC(=O)C(C)(C)NC(=O)[C@@H](N)Cc1c[nH]cn1)[C@@H](C)O)[C@@H](C)O)C(=O)N[C@@H](CC(=O)O)C(=O)N[C@@H](CCC(=O)O)C(=O)N[C@@H](CCC(N)=O)C(=O)N[C@@H](CCCNC(=N)N)C(=O)N[C@@H](C)C(=O)N[C@@H](CCCCN)C(=O)N[C@@H](CC(C)C)C(=O)N[C@@H](Cc1ccccc1)C(=O)N[C@H](C(=O)N[C@@H](CCC(=O)O)C(=O)N[C@@H](Cc1c[nH]c2ccccc12)C(=O)N[C@@H](CC(C)C)C(=O)NC(C)(C)C(=O)N[C@@H](C)C(=O)NCC(=O)NCC(=O)N1CCC[C@H]1C(=O)N[C@@H](CO)C(=O)N[C@@H](CO)C(=O)NCC(=O)N[C@@H](C)C(=O)N1CCC[C@H]1C(=O)N1CCC[C@H]1C(=O)N1CCC[C@H]1C(=O)N[C@@H](CO)C(N)=O)[C@@H](C)CC)C(=O)O)C(=O)O` [SEQ ID NO: 8, H-Aib-Q-G-T-F-T-S-D-L-S-K-Q-K(γE-γE-x53)-D-E-Q-R-A-K-L-F-I-E-W-L-Aib-A-G-G-P-S-S-G-A-P-P-P-S-NH2], the “Blood glucose compared to DIO control mice” value in series [1] is on record as “significant decrease in blood glucose”. Moreover, in series [2], the highest level (Cmax) was 476 ng/mL and the half-life is 18.1 h. The solubility at 2 h in series [3] (setting [9]) is > 8 mg/mL. In addition, the solubility at 2 h in series [3] (setting [10]) was > 8 mg/mL. The response in series [4] was half-maximal at 0.0023 nM (EC50). Besides, the EC50 in series [5] was 2.14 nM. In series [6], this compound showed a Cmax of 4360 ng/mL and a half-life of 3.8 h. For the same compound, in series [7], the “Day on which significant body weight decrease begins” value worked out at 5 days, the “Daily body weight compared to vehicle DIO control mice” value was “reduced body weight significantly”, the “Body fat change” value is -3.81 ± 0.6 g and the “Overall weight change” value is -5.38 ± 0.5 g. This compound also registered an EC50 in series [8] of 0.0281 nM.

For `CCCCCCCCCCCCCCCC(=O)N[C@@H](CCC(=O)N[C@@H](CCC(=O)NCCCC[C@H](NC(=O)[C@H](CCC(N)=O)NC(=O)[C@H](CCCCN)NC(=O)[C@H](CO)NC(=O)[C@H](CC(C)C)NC(=O)[C@H](CC(=O)O)NC(=O)[C@H](CO)NC(=O)[C@@H](NC(=O)[C@H](Cc1ccccc1)NC(=O)[C@@H](NC(=O)CNC(=O)[C@H](CCC(N)=O)NC(=O)C(C)(C)NC(=O)[C@@H](N)Cc1c[nH]cn1)[C@@H](C)O)[C@@H](C)O)C(=O)N[C@@H](CC(=O)O)C(=O)N[C@@H](CCC(=O)O)C(=O)N[C@@H](CCC(N)=O)C(=O)N[C@@H](CCCNC(=N)N)C(=O)N[C@@H](C)C(=O)N[C@@H](CCCCN)C(=O)N[C@@H](CC(C)C)C(=O)N[C@@H](Cc1ccccc1)C(=O)N[C@H](C(=O)N[C@@H](CCC(=O)O)C(=O)N[C@@H](Cc1c[nH]c2ccccc12)C(=O)N[C@@H](CC(C)C)C(=O)NC(C)(C)C(=O)N[C@@H](C)C(=O)N[C@H](C)C(=O)NCC(=O)N1CCC[C@H]1C(=O)N[C@@H](CO)C(=O)N[C@@H](CO)C(=O)NCC(=O)N[C@@H](C)C(=O)N1CCC[C@H]1C(=O)N1CCC[C@H]1C(=O)N1CCC[C@H]1C(=O)N[C@@H](CO)C(N)=O)[C@@H](C)CC)C(=O)O)C(=O)O` [SEQ ID NO: 7, H-Aib-Q-G-T-F-T-S-D-L-S-K-Q-K(γE-γE-x53)-D-E-Q-R-A-K-L-F-I-E-W-L-Aib-A-dAla-G-P-S-S-G-A-P-P-P-S-NH2], in series [1], the “Blood glucose compared to DIO control mice” value is reported as “significant decrease in blood glucose”. In addition, the Cmax in series [2] stood at 667 ng/mL; in series [6] it was 5510 ng/mL. The half-life in series [2] is 29 h; in series [6] it was 3.1 h. In addition, the solubility at 2 h in series [3] (setting [9]) and in series [3] (setting [10]) was > 8 mg/mL in each case. Moreover, the values for the EC50 in series [4], in series [5] and in series [8] were 0.0034 nM, 7.62 nM and 0.101 nM, respectively. Further, the “Day on which significant body weight decrease begins” value in series [7] was 7 days. Further, the “Daily body weight compared to vehicle DIO control mice” value in series [7] was “statistically significant decrease”. Moreover, the “Body fat change” value in series [7] was -3.73 ± 0.8 g. In addition, the “Overall weight change” value in series [7] is -5.49 ± 0.9 g.
